Experimental data reported in US20080267948A1, “Croos-B Structure Binding Compounds” (priority 2005, published 2008).
“Also recorded” adds a separate entry of the source.

What was measured:
[1] = system: human blood platelets; assay: Platelet aggregation (aggregometric assay with washed platelets); assay type: cell-based
Procedure: The influence of amyloid-β(1-40) E22Q Dutch type (Aβ) peptide aggregates with cross-β structure conformation on blood platelet aggregation was tested with washed platelets in an aggregometric assay. Freshly drawn human aspirin free blood was mixed gently with citrate buffer to avoid coagulation. Blood was spinned for 15′ at 150*g at 20° C. and supernatant was collected; platelet rich plasma (PRP). […] After spinning down the platelets upon centrifugation for 15′ at 330*g at 20° C., the pellet was resuspended in HEPES-Tyrode buffer pH 6.5. Prostacyclin was added to a final concentration of 10 ng/ml, and the solution was centrifuged for 15′ at 330*g at 20° C., with a soft brake. The pellet was resuspended in HEPES-Tyrode buffer pH 7.2 in a way that the final platelet number was adjusted to 200,000/μl. Platelets were kept at 37° C. for at least 30′, before use in the assays, to ensure that they were in the resting state.
Aggregation of platelets was monitored in an aggregometer (Chrono-Log Corporation, Havertown, Pa., USA) for 15 minutes at 37° C. with a magnet stirring speed of 900 rpm. First, 270 μl of platelet solution was pipetted in the cuvettes and after 1 minute of stirring, 30 μl of preincubated (5 minutes, RT) Aβ and Hematein solution or control was added. The hematein stock was 10 mg/ml in HEPES-Tyrode buffer. The Aβ stock was 1 mg/ml. For blank readings unstirred HEPES Tyrode buffer was used. The aggregation is expressed as the percentage of the light transmission (0-100%). As a positive control, synthetic thrombin receptor activating peptide (TRAP) induced platelet aggregation was used. A control experiment was performed to study the influence of the red colour of hematein on the light transmission. For this, 4 μM TRAP was added at time 1 minute to the platelets, then hematein was added after 6 minutes of aggregation. The platelets were used for not more than 4 hours after isolation to reduce variations in sensitivity amongst subsequent measurements.
Ellagic acid was first dissolved to 100 mg/ml in DMSO, and then further diluted to 1 mg/ml in HBS buffer. Final concentrations of Aβ and ellagic acid in the aggregation assay were 50 μg/ml and 25/50 μg/ml, respectively. In addition, the influence of ellagic acid alone on platelet aggregation was tested. As a control, the influence of 0.08% DMSO on 50 μg/ml Aβ-induced platelet aggregation was analyzed. The 100% DMSO of the ellagic acid stock was diluted 2000 and 4000×, resulting in […] final DMSO concentrations in the aggregation assay.

[2] = target: tPA (Homo sapiens, UniProt P00750); assay: tPA serine protease activity with OVA heated in the presence of compounds (substrate S-2765); assay type: biochemical; design: purchased Boehringer Ingelheim Actilyse; conditions: OVA heated with 1 mg/ml compound, 80-, 160- or 320-fold diluted, 100 nM tPA
Chain of tPA (P00750 36-562): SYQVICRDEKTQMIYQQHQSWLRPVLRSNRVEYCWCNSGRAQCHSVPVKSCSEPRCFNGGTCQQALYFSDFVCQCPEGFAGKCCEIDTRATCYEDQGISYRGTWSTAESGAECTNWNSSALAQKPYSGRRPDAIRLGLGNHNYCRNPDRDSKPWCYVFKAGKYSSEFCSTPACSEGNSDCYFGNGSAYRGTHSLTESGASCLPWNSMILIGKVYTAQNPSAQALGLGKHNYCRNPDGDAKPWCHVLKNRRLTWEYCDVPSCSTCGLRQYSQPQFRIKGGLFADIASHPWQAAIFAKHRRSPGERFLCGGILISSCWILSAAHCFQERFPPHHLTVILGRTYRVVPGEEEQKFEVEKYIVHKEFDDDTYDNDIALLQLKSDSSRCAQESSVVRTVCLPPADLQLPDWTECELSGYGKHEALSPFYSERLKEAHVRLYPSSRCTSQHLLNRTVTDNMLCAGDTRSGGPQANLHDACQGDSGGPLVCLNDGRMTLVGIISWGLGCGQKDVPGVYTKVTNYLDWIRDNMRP
Procedure: For this purpose, the influence of the compounds on heat-denaturation of OVA was analyzed (see above: Thioflavin T fluorescence measurements). Heated OVA at 1 mg/ml in PBS in the presence or absence of 1 mg/ml of the twelve compounds listed in Table 7 in PBS/DMSO (final DMSO concentration 1%) was used 80-fold or 160-fold or 320-fold diluted (final heated OVA concentration and compound concentration was 12.5 or 6.3 or 3.1 μg/ml; final DMSO concentration was 0.013% and 0.006% and 0.003%).

[3] = target: T1, heat-denatured ovalbumin (Gallus gallus, UniProt P01012); assay: Thioflavin T fluorescence of ovalbumin and small compounds; design: species or system chicken; conditions: 1 mg/ml compound, 1 mg/ml OVA
T1 construct: purchased Sigma A5503
T1 sequence (P01012 1-386): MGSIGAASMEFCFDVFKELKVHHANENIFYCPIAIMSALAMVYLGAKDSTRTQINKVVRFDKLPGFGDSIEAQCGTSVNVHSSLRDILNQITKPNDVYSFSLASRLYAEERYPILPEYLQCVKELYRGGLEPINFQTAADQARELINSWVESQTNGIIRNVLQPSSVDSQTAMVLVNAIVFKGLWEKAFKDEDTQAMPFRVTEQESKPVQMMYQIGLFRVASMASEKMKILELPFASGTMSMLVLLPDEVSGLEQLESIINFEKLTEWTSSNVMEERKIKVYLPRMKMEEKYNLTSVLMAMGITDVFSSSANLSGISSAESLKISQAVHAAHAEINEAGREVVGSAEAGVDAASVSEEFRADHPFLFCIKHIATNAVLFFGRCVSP
Procedure: To establish the enhancement of Thioflavin T fluorescence by ovalbumin preparations, 90 μl of 25 μM ThT-solution in 50 mM Glycine buffer (pH 9.0) was added to 10 μl sample in duplicate wells of black 96-wells plates. Heat-denatured ovalbumin at 1 mg/ml in PBS with no addition, DMSO at a final concentration of 1% v/v, or 1 mg/ml of the compounds listed in Table 7, was used. Compound stocks are 100 mg/ml in DMSO. In addition, ovalbumin at 1 mg/ml with the same additions was first heat denatured and subsequently used in the fluorescence assay. Heat denaturation was according to the protocol given above. Fluorescence of duplicates was measured on a Thermo Fluoroskan Ascent 2.5, at 435 nm excitation and 485 nm emission wavelengths.

[4] = target: T2, amyloid-β(1-40) E22Q (Homo sapiens, UniProt P05067, E693Q); assay: ELISA binding of tPA to immobilized Aβ after pre-incubation with compounds; conditions: Aβ first overlayed with compound (concentration series), then tPA
T2 construct: For similar ELISA's with DOVA and Aβ(1-40) E22Q, 1 μg/ml DOVA or Aβ was coated; purchased Peptide facility, Dutch Cancer Institute, Amsterdam; host or cells: synthetic peptide
T2 sequence (P05067 672-711 E693Q): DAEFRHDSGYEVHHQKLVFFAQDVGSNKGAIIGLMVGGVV
Procedure: Compounds were now diluted 10× in PBS/0.1% Tween20 (500 μg/ml compound). […] With this approach a further selection of the compounds was achieved. Now, compounds that at least interact with HB-AGE are selected. With the selection, similar binding assays are performed with misfolded OVA and Aβ. Finally, concentration series of the selected compounds are used in the binding studies.

[5] = target: T3, Hb-AGE (Homo sapiens, UniProt P68871+P69905); assay: ELISA binding of tPA to immobilized Hb-AGE after pre-incubation with compounds; conditions: Hb-AGE first overlayed with compound (concentration series), then tPA
T3 construct: purchased Sigma-Aldrich H7379
T3 sequence (P69905 2-142 limits assumed): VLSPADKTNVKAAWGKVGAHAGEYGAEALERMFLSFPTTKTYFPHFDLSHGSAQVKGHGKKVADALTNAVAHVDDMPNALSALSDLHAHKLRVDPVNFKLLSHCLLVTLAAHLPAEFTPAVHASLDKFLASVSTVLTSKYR
T3 sequence (P68871 2-147 limits assumed): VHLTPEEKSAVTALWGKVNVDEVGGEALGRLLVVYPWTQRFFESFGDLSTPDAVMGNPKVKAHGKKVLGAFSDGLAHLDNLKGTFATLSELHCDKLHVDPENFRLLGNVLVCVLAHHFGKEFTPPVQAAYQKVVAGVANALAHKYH
Procedure: Compounds were now diluted 10× in PBS/0.1% Tween20 (500 μg/ml compound). […] With the selection, similar binding assays are performed with misfolded OVA and Aβ. Finally, concentration series of the selected compounds are used in the binding studies.

[6] = target: T4, tPA/plasminogen (Homo sapiens, UniProt P00750); assay: tPA/plasminogen activation by OVA heated in the presence of compounds (substrate PNAPEP1751); assay type: biochemical; conditions: 25 μg/ml OVA, 25 μg/ml compound, […] DMSO
T4 construct: purchased Boehringer Ingelheim Actilyse
T4 sequence (P00750 36-562): as the sequence (P00750 36-562) above
Procedure: Heated OVA, either in PBS/1% DMSO (positive control), or in the same buffer in the presence of 1 mg/ml of the compounds, was used 40-fold diluted in the assay. Negative control was buffer without OVA. […] In addition, it was assessed whether the compounds interfere with absorbance readings at 405 nm, with converted chromogenic substrate. […] The yellow solution is divided over wells of an ELISA plate. […] Signals are compared and related to the control.

[7] = target: T5, ovalbumin (Gallus gallus, UniProt P01012); assay: Transmission electron microscopy of ovalbumin heated in the presence of small compounds; design: species or system chicken; conditions: 1 mg/ml ovalbumin heated with 1 mg/ml compound
T5 construct: purchased Sigma A5503
T5 sequence (P01012 1-386): T1 sequence (P01012 1-386)
Procedure: For TEM analyses grids were prepared according to standard procedures. Ovalbumin samples at 1 mg/ml were applied to 100-mesh copper grids with carbon coated Formvar (Merck, Germany), and subsequently washed with PBS and H2O. Grids were applied to droplets of 2% (m/v) methylcellulose with 0.4% (m/v) uranylacetate pH 4. After a 2-minutes incubation grids were dried on a filter. Images were recorded at 80 kV, at suitable magnifications on a JEM-1200EX electron microscope (JEOL, Japan).

[8] = target: T4, tPA/plasminogen; assay: tPA/plasminogen activation by pre-formed misfolded OVA in the presence of compounds; assay type: biochemical; conditions: 80-fold or 160-fold diluted compound and misfolded OVA stocks of 1 mg/ml
Procedure: […] Negative control was buffer without OVA. […] In addition, it was assessed whether the compounds interfere with absorbance readings at 405 nm, with converted chromogenic substrate. […] The yellow solution is divided over wells of an ELISA plate. […] Signals are compared and related to the control.

O=C1C=C2CC3(O)COc4c(ccc(O)c4O)C3=C2C=C1O (stereo not shown) [compound 152, Hematein]
influence on Aβ induced platelet aggregation ([1]; 100 μg/ml Aβ and 333 μg/ml haematein added together): almost completely blocked; also recorded: potent inhibitor of misfolded Aβ-induced platelet aggregation; also recorded: Inhibition of Aβ-induced platelet aggregation | reduction of TRAP-induced platelet aggregation ([1]; TRAP and haematein pre-mixed): approximately 10% | influence on tPA protease activity of OVA heated in the presence of compound [2]: Potentiation of tPA protease activity | influence on Thioflavin T fluorescence with misfolded OVA [3]: Inhibition on Thioflavin T fluorescence with misfolded OVA | influence on tPA binding to immobilized Aβ [4]: Stimulated tPA binding to immobilized misfolded protein (Aβ, | influence on tPA binding to immobilized Hb-AGE [5]: Inhibited tPA binding to immobilized misfolded protein (Hb- | influence on tPA/plasminogen activation by OVA pre-heated in the presence of compound [6]: Inhibition of tPA/plasminogen activation by OVA pre-heated | appearance of ovalbumin heated in the presence of compound on TEM image ([7]; listed as Haematein): No large aggregates. Small aggregates at a lower | appearance of ovalbumin heated in the presence of compound on TEM image ([7]; listed as haematein): less OVA aggregates after heating in the presence of the | influence on tPA/plasminogen activation by pre-formed misfolded OVA [8]: Full block of tPA/plasminogen activation by misfolded OVA
